Columns and labels:
wild-type CysLT1R = molecular target: T1, wild-type CysLT1R (Homo sapiens, UniProt Q9Y271); test: IP1 production assay, antagonist mode, co-stimulation with EC80 LTD4; format: cell-based
T1 construct: expressed in transfected cells; host or cells: HEK293 (ATCC CRL-1573), transient transfection with Lipofectamine 3000
T1 sequence (Q9Y271 1-337): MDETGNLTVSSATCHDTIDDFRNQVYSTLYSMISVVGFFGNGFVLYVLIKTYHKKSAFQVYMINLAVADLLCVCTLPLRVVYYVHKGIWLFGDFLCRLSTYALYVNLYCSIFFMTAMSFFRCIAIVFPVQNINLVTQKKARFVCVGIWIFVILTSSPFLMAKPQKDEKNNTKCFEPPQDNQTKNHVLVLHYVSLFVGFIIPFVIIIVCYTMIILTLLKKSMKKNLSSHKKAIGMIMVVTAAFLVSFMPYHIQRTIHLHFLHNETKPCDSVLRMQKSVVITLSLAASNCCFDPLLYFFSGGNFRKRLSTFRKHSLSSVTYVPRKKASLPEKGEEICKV
Experimental: (§1) For this assay, we used the Cisbio IP-One kit as previously described. […] At 48 h post-transfection, the media was removed and the cells were washed with fresh Hank’s Balanced Salt Solution (HBSS). […] After compound stimulation, the cells were incubated for 1 h at 37 °C and stimulated with IP1-D2 and Ab-Crypt reagents in Lysis Buffer. The cells were then incubated at room temperature for an additional hour. […] Normalized data were plotted using either the three-parameter or four-parameter EC50/IC50 fits of GraphPad Prism 8 (San Diego). […] Data represent the means ± SEM of at least three independent experiments performed in quadruplicate.

wild-type CysLT2R = molecular target: T2, wild-type CysLT2R (Homo sapiens, UniProt Q9NS75); test: as above; format: cell-based
T2 construct: expressed in transfected cells; host or cells: HEK293 (ATCC CRL-1573), transient transfection with Lipofectamine 3000
T2 sequence (Q9NS75 1-346): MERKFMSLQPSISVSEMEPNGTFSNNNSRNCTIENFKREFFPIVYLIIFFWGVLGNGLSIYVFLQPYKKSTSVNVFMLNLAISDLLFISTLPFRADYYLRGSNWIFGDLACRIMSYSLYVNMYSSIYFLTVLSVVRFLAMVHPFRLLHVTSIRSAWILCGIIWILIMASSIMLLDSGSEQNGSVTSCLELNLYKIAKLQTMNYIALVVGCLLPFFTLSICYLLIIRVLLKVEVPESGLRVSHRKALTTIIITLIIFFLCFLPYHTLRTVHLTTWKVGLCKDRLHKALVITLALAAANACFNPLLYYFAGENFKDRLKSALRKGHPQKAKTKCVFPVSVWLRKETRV
Experimental: as §1

Row | SMILES | remaining activity at 30 µM (wild-type CysLT1R) | remaining activity at 30 µM (wild-type CysLT2R)
1 | Cc1onc(N)c1S(=O)(=O)Nc1ccc(N2CCCC2)cc1C(=O)O [BRI-12425] | 84.2% | 79.8%
2 | O=C(O)c1c(F)cccc1NS(=O)(=O)N1CCc2ccccc2C1 [BRI-12304] | 83.8% | 106%
3 | Cc1nc2c(C(N)=O)cnn2c(C)c1CCC(=O)N(C)c1ccc2cc[nH]c2c1 [BRI-12448] | 95.9% | 88.5%
4 | O=C(Nc1ccc2c(c1)COC2)N1CCCCC1c1cn[nH]c1 (centres unmarked) [BRI-12312] | 77.4% | 87.2%
5 | O=C1COc2ccc(C(=O)Cn3cnc4sc5c(c4c3=O)CCC5)cc2N1 [BRI-12335] | 73.8% | 74.8%
6 | O=C(O)CCC(NC(=O)c1cccc(C(F)(F)F)c1)c1ccccc1 (centres unmarked) [BRI-12412] | 91.4% | 63.4%
7 | O=C(Cn1c(=O)[nH]c(=O)c2ccccc21)N1CCc2[nH]c3ccc(F)cc3c2C1 [BRI-12341] | 69.5% | 61.4%
8 | NC(=O)c1ccc(NC(=O)CCCCC2SCC3NC(=O)NC32)cc1 (centres unmarked) [BRI-12301] | 91.5% | 88.1%
9 | O=C(O)CCc1cccc(NC(=O)c2ccc(-c3cccs3)[nH]c2=O)c1 [BRI-12475] | 68.3% | 74.6%
10 | O=C(Nc1ccc(C(=O)NC2CCCCC2)c(O)c1)c1ccc(F)c(S(=O)(=O)NC2CC2)c1 [BRI-12446] | 72.4% | 67.7%
11 | Cc1ccc2c(CC(=O)N3CCN(C(=O)c4ccc(C(N)=O)o4)CC3)c[nH]c2c1 [BRI-12462] | 77.1% | 78.1%
12 | CC(C)(C)CNC(=O)c1ccc(C(=O)Nc2ccccc2CC(=O)O)cc1 [BRI-12407] | 83% | 70.4%
13 | Cc1sc(NC(=O)C(C)(CC(=O)O)C2CCCCC2)c(C(N)=O)c1-c1ccccc1 (centres unmarked) [BRI-12474] | 118% | 106%
14 | CN(CCOc1ccc(OCc2ccccc2)cc1)C(=O)c1cc(=O)[nH]c2ccc(F)cc12 [BRI-12404] | 83.8% | 67.3%
15 | CC(Sc1ccccc1C(=O)O)C(=O)N1CC(=O)Nc2ccccc21 (centres unmarked) [BRI-12351] | 77.6% | 82.6%
16 | O=C(NCC(O)c1cccc(OCc2ccccc2)c1)c1cc(=O)[nH]c2ccc(F)cc12 (centres unmarked) [BRI-12409] | 73.3% | 62.3%
17 | Cc1ccc(C(=O)Nc2ccc(C(=O)NCC(=O)O)cc2)c(O)c1 [BRI-12428] | 90.3% | 59.5%
18 | C=C1c2ccccc2C(=O)N1CCC(=O)Nc1cc(C(N)=O)cc(C(N)=O)c1 [BRI-12353] | 83.4% | 96.8%
19 | CC(C)NC(=O)Nc1ccc(C(=O)Nc2ccc(OCC(=O)O)c(Cl)c2)cc1 [BRI-12420] | 91.7% | 64.2%
20 | O=C1CCc2cc(NC(=O)C(=O)NCCc3ccc4c(c3)OCO4)ccc2N1 [BRI-12338] | 66.4% | 95.5%
21 | O=C(Cc1ccc(S(=O)(=O)CCO)cc1)Nc1ccc(-c2nc3cccc(Cl)c3s2)cc1 [BRI-12452] | 76.5% | 77.4%
22 | O=C(c1cc(C(F)(F)F)n[nH]1)N1CCC2(C1)CN(C(=O)[C@@H]1C[C@H]1c1cccnc1)C2 [BRI-12459] | 77.6% | 69.1%
23 | CN(C(=O)c1ccc(C(=O)Nc2ccsc2C(N)=O)cc1)c1ccccc1 [BRI-12430] | 79.5% | 92.5%
24 | Cc1cccc(-n2nnc(C(=O)Nc3ccc4c(c3)NC(=O)CO4)c2C)c1 [BRI-12333] | 77.5% | 70.5%
25 | COc1ccccc1C(=O)NCC1CN(C(=O)c2ccc3[nH]c(=O)n(C)c3c2)C1 [BRI-12461] | 87.6% | 58.4%

Reference: article PMC7761830, “Structure-Based Virtual Screening of Ultra-Large Library Yields Potent Antagonists for a Lipid GPCR” (Biomolecules, 2020)
